In patent US20250328351A1, “CARBONIC ANHYDRASE INHIBITORS AND ANTIBIOTICS AGAINST MULTIDRUG RESISTANT BACTERIA” (Purdue Research Foundation, priority 2018, published 2025):
Values after ≈ are worked out from the molar mass of the structure shown. Read-outs that look alike come from different tables or passages of the source.

What was measured:
[1] = test system: Enterococcus faecium Patient #3-1 NR-31912; assay: MIC, broth microdilution (CLSI); type: cell-based; settings: Enterococcus faecium, TSB, read-out: MIC
Method: (§1) The minimum inhibitory concentrations (MICs) of the compounds and control drugs were determined using the broth microdilution method, according to guidelines outlined by the Clinical and Laboratory Standards Institute (CLSI). Enterococci strains were grown aerobically overnight on tryptone soya agar plates at 37° C., afterwards a bacterial solution equivalent to 0.5 McFarland standard was prepared and diluted in tryptone soy broth (TSB) to achieve a bacterial concentration of about 5×10^5 CFU/mL and seeded in 96-well well plates. Compounds and control drugs were added in the first row of the 96-well plates and serially diluted along the plates. Plates were then incubated aerobically at 37° C. for 18-20 hours. MICs reported in Table 1 are the minimum concentration of the compounds/control drugs that could inhibit completely the visual growth of the bacteria.

[2] = test system: Enterococcus fecalis Strain SF 28073 - NR31972; assay: MIC, broth microdilution (CLSI); type: cell-based; settings: Enterococcus, TSB, read-out: MIC
Method: as §1

[3] = test system: Enterococcus fecalis Strain SF24413 NR31971; assay: MIC, broth microdilution (CLSI); type: cell-based; settings: Enterococcus, TSB, read-out: MIC
Method: as §1

[4] = test system: Bacteroides dorei CL02T12C06 HM-719; assay: MIC against human normal gut microbiota; type: cell-based; settings: Phocaeicola dorei; Table 3; BHIS broth, anaerobic, 48 hours; read-out: MIC
Method in brief: (§2)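 Bifidobacterium and Bacteroides were pre-grown on BHIS agar (hemin, vitamin K, L-cysteine) anaerobically, Lactobacillus on MRS agar under 5% CO2, each 48 h at 37° C. Inocula of ~5×10^5 CFU/ml in BHIS or MRS broth were exposed to serial compound dilutions for 48 h under the same conditions.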

[5] = test system: Bacteroides fragilis CL07T00C01 HM-709; assay: MIC against human normal gut microbiota; type: cell-based; settings: Table 3, BHIS broth, anaerobic, 48 hours, read-out: MIC
Method in brief: as §2

[6] = test system: Bifidobacterium breve JCP7499 HM 1120; assay: MIC against human normal gut microbiota; type: cell-based; settings: JCP7499HM1120, Table 3, BHIS broth, anaerobic, 48 hours, read-out: MIC
Method in brief: as §2

[7] = test system: Bifidobacterium longum subsp. Longum 44B HM 845; assay: MIC against human normal gut microbiota; type: cell-based; settings: Table 3, BHIS broth, anaerobic, 48 hours
Method in brief: as §2

[8] = test system: Lactobacillus casei ATCC 334; assay: MIC against human normal gut microbiota; type: cell-based; settings: Lacticaseibacillus casei, ATCC334; Table 3; MRS broth, 5% CO2, 48 hours
Method in brief: as §2

[9] = test system: Lactobacillus gasseri EX336960VC03 HM-400; assay: MIC against human normal gut microbiota; type: cell-based; settings: Table 3, MRS broth, 5% CO2, 48 hours
Method in brief: as §2

[10] = test system: Mutant-3 of Enterococcus fecalis NR 31975; assay: microbe, parasite or virus in culture; type: cell-based
[11] = test system: Mutant-8 of Enterococcus fecalis NR 31975; assay: microbe, parasite or virus in culture; type: cell-based
[12] = test system: Mutant-15 of Enterococcus fecalis NR 31975; assay: microbe, parasite or virus in culture; type: cell-based
[13] = test system: Caco-2 cells; assay: In vitro cytotoxicity, MTS assay; settings: concentration up to 128 μg/mL; two hours incubation
Method: Method: Compounds AS005H, AS005J, AS004B, AS005K, AS005A and 005D were assayed (at concentrations of 64 and 128 μg/mL) against a human colorectal adenocarcinoma (Caco-2) cell to determine the potential toxic effect to mammalian cells in vitro. Briefly, cells were cultured in Dulbecco's Modified Eagle Medium (DMEM) supplemented with 20% fetal bovine serum (FBS), non-essential amino acids (1×), penicillin-streptomycin at 37° C. with CO2 (5%). Control cells received DMSO alone at a concentration equal to that in drug-treated cell samples. The cells were incubated with the compounds (in triplicate) in a 96-well plate at 37° C. with CO2 (5%) for two hours. The assay reagent MTS 3-(4,5-dimethylthiazol-2-yl)-5-(3-carboxymethoxyphenyl)-2-(4-sulfophenyl)-2H-tetrazolium) (Promega, Madison, WI, USA) was subsequently added and the plate was incubated for four hours. Absorbance readings (at OD490) were taken using a kinetic microplate reader (Molecular Devices, Sunnyvale, CA, USA). The quantity of viable cells after treatment with each compound was expressed as a percentage of the viability of DMSO-treated control cells (average of triplicate wells±standard deviation). The toxicity data was analyzed via a two-way ANOVA, with post hoc Dunnet's multiple comparisons test (P<0.05), utilizing GraphPad Prism 6.0 (GraphPad Software, La Jolla, CA).
Percent viable mammalian cells (measured as average absorbance ratio (test agent relative to DMSO) for cytotoxicity analysis of AS005H, AS005J, AS004B, AS005K, AS005A and 005D compounds (tested in triplicate) at 64 and 128 μg/mL against Caco-2 cells using the MTS 3-(4,5-dimethylthiazol-2-yl)-5-(3-carboxymethoxyphenyl)-2-(4-sulfophenyl)-2H-tetrazolium) assay. Dimethyl sulfoxide (DMSO) was used as a negative control to determine a baseline measurement for the cytotoxic impact of each compound. The absorbance values represent an average of a minimum of three samples analyzed for each compound. Error bars represent standard deviation values for the absorbance values. A two-way ANOVA, with post hoc Dunnet's multiple comparisons test, determined statistical difference (denoted by the asterisk) (P<0.05) between the values obtained for each compound and DMSO (negative control, used as solvent for the compounds).

CC(C)=CC(=O)Nc1nnc(S(N)(=O)=O)s1 [CAI0016, 3-Methyl-N-(5-sulfamoyl-1,3,4-thiadiazol-2-yl)but-2-enamide]
MIC ([1]; Table 1): 1 µg/mL (≈ 3.81 µM) | MIC ([1]; Table 7): 0.5 µg/mL (≈ 1.91 µM) | MIC ([2]; Table 1): 0.5 µg/mL (≈ 1.91 µM) | MIC ([2]; Table 7): 0.5 µg/mL (≈ 1.91 µM) | MIC ([3]; Table 1): 0.5 µg/mL (≈ 1.91 µM) | MIC ([3]; Table 7): 0.5 µg/mL (≈ 1.91 µM) | MIC [4]: > 64 µg/mL | MIC [5]: > 64 µg/mL | MIC [6]: > 64 µg/mL | MIC [7]: > 64 µg/mL | MIC [8]: > 64 µg/mL | MIC [9]: > 64 µg/mL | MIC [10]: 4 µg/mL (≈ 15.2 µM) | MIC [11]: 4 µg/mL (≈ 15.2 µM) | MIC [12]: 8 µg/mL (≈ 30.5 µM) | toxicity to Caco-2 cells (percent viable cells, MTS) [13]: non-toxic
